pEC50: −log10 of the molar value.
tested on: HBV; experiment: HBV inhibition assay in HepAD38 cells (extracellular HBV DNA by direct qPCR); format: cell-based; conditions: Hepatitis B virus, 8-point dose-response curve, 96 hours, read-out: HBV inh EC50
Procedure, shortened: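 HepAD38 cells (HepG2, tetracycline-off HBV) induced in tetracycline-free medium, treated 96 h at 37 °C with compound, 0.5% DMSO. Extracellular HBV DNA quantified by direct SYBR qPCR of lysed supernatant, as % of untreated; EC50 from 8-point 1:2 curves; cytotoxicity by CellTiter-Blue.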

| SMILES | pEC50 |
| --- | --- |
| O=C(Nc1cc(F)c(F)c(F)c1)c1cc2c(cc1Cl)NCNS2(=O)=O [Example E7, 6-chloro-N-(3,4,5-trifluorophenyl)-3,4-dihydro-2H-benzo[e][1,2,4]thiadiazine-7-carboxamide 1,1-dioxide] | > 6.00 |

same assay, conditions: Hepatitis B virus, compound at 0.5 µM, 96 hours, relative to non-treated reference, read-out: Anti HBV Activity (conc µM)

| SMILES | inhibition at 0.5 µM |
| --- | --- |
| O=C(Nc1ccc(Cl)nc1)c1ccc2c(c1)S(=O)(=O)NCN2 [Example E92, N-(6-chloropyridin-3-yl)-3,4-dihydro-2H-benzo[e][1,2,4]thiadiazine-7-carboxamide 1,1-dioxide] | < 50% |
| O=C(Nc1cc(F)c(F)c(F)c1)c1ccc2c(c1)S(=O)(=O)N(C1CC1)CN2 [Example E60, 2-cyclopropyl-N-(3,4,5-trifluorophenyl)-3,4-dihydro-2H-benzo[e][1,2,4]thiadiazine-7-carboxamide 1,1-dioxide] | < 50% |
| O=C(Nc1cc(F)c(F)c(F)c1)c1cnc2c(c1)S(=O)(=O)NCN2 [Example E93, N-(3,4,5-trifluorophenyl)-3,4-dihydro-2H-pyrido[2,3-e][1,2,4]thiadiazine-7-carboxamide 1,1-dioxide] | < 50% |
| O=C(Nc1cc(F)c(F)c(F)c1)c1cnc2c(c1)S(=O)(=O)N([C@H]1CC[C@H](O)CC1)C(=O)N2 [Example E121, trans-2-(4-hydroxycyclohexyl)-3-oxo-N-(3,4,5-trifluorophenyl)-3,4-dihydro-2H-pyrido[2,3-e][1,2,4]thiadiazine-7-carboxamide 1,1-dioxide] | < 50% |
| O=C(Nc1cc(F)c(F)c(F)c1)c1ccc2c(c1)S(=O)(=O)NC(CO)N2 (stereo not drawn) [Example E28, 3-(hydroxymethyl)-N-(3,4,5-trifluorophenyl)-3,4-dihydro-2H-benzo[e][1,2,4]thiadiazine-7-carboxamide 1,1-dioxide] | > 50% |
| O=C(Nc1cc(F)c(F)c(F)c1)c1ccc2c(c1)S(=O)(=O)N([C@H]1CC[C@H](O)CC1)CN2 [Example E58, trans-2-(4-hydroxycyclohexyl)-N-(3,4,5-trifluorophenyl)-3,4-dihydro-2H-benzo[e][1,2,4]thiadiazine-7-carboxamide 1,1-dioxide] | < 50% |
| CN1C(C(F)(F)F)Nc2ccc(C(=O)Nc3cc(F)c(F)c(F)c3)cc2S1(=O)=O (stereo not drawn) [Example E18, 2-methyl-3-(trifluoromethyl)-N-(3,4,5-trifluorophenyl)-3,4-dihydro-2H-benzo[e][1,2,4]thiadiazine-7-carboxamide1,1-dioxide] | < 50% |
| CC1(C)Nc2ccc(C(=O)Nc3cc(F)c(F)c(F)c3)cc2S(=O)(=O)N1 [Example E27, 3,3-dimethyl-N-(3,4,5-trifluorophenyl)-3,4-dihydro-2H-benzo[e][1,2,4]thiadiazine-7-carboxamide 1,1-dioxide] | > 50% |

same assay, conditions: Hepatitis B virus, compound at 1 µM, 96 hours, relative to non-treated reference, read-out: Anti HBV Activity (conc µM)

| SMILES | inhibition at 1 µM |
| --- | --- |
| O=C(Nc1cc(F)c(F)c(F)c1)c1ccc2c(c1)S(=O)(=O)NC(CO)CO2 (stereo not drawn) [Example E135, 3-(hydroxymethyl)-N-(3,4,5-trifluorophenyl)-3,4-dihydro-2H-benzo[b][1,4,5]oxathiazepine-8-carboxamide 1,1-dioxide] | < 50% |
| O=C(Nc1ccc(F)c(F)c1)c1ccc2c(c1)S(=O)(=O)NC1(CCC1)N2 [Example E12, N-(3,4-difluorophenyl)-2H,4H-spiro[benzo[e] [1,2,4]thiadiazine-3,1'-cyclobutane]-7-carboxamide 1,1-dioxide] | > 50% |
| CC(=O)NCC1Nc2ccc(C(=O)Nc3cc(F)c(F)c(F)c3)cc2S(=O)(=O)N1 (stereo not drawn) [Example E30, 3-(acetamidomethyl)-N-(3,4,5-trifluorophenyl)-3,4-dihydro-2H-benzo[e][1,2,4]thiadiazine-7-carboxamide 1,1-dioxide] | > 50% |
| O=C(Nc1cc(F)c(F)c(F)c1)c1ccc2c(c1)S(=O)(=O)NC(C(F)F)N2 (stereo not drawn) [Example E17, 3-(difluoromethyl)-N-(3,4,5-trifluorophenyl)-3,4-dihydro-2H-benzo[e][1,2,4]thiadiazine-7-carboxamide1,1-dioxide] | > 50% |
| O=C1Nc2ccc(C(=O)Nc3ccc(F)c(F)c3)cc2S(=O)(=O)N1 [Example E74, N-(3,4-difluorophenyl)-3-oxo-3,4-dihydro-2H-benzo[e][1,2,4]thiadiazine-7-carboxamide 1,1-dioxide] | < 50% |
| O=C(Nc1cc(F)c(F)c(F)c1)c1ccc2c(c1)S(=O)(=O)NC(c1ccc(C(F)(F)F)nc1)N2 (stereo not drawn) [Example E42, 3-(6-(trifluoromethyl)pyridin-3-yl)-N-(3,4,5-trifluorophenyl)-3,4-dihydro-2H-benzo[e][1,2,4]thiadiazine-7-carboxamide 1,1-dioxide] | > 50% |
| O=C(Nc1cc(F)c(F)c(F)c1)c1cc2c(cc1Cl)NC1(CCC1)NS2(=O)=O [Example E34, 6-chloro-N-(3,4,5-trifluorophenyl)-2H,4H-spiro[benzo[e] [1,2,4]thiadiazine-3,1'-cyclobutane]-7-carboxamide 1,1-dioxide] | < 50% |
| CC(=O)NC1=Nc2ccc(C(=O)Nc3cc(F)c(F)c(F)c3)cc2S(=O)(=O)N1 [Example E70, 3-acetamido-N-(3,4,5-trifluorophenyl)-2H-benzo[e][1,2,4]thiadiazine-7-carboxamide 1,1-dioxide] | < 50% |
| O=C(Nc1cc(F)c(F)c(F)c1)c1ccc2c(c1)S(=O)(=O)NC(C(F)(F)F)N2 (stereo not drawn) [Example E15, 3-(trifluoromethyl)-N-(3,4,5-trifluorophenyl)-3,4-dihydro-2H-benzo[e][1,2,4]thiadiazine-7-carboxamide1,1-dioxide] | < 50% |
| CC(C)(C)OC(=O)N1CCC(C2Nc3ccc(C(=O)Nc4cc(F)c(F)c(F)c4)cc3S(=O)(=O)N2)CC1 (stereo not drawn) [Example E31, tert-butyl 4-(1,1-dioxido-7-((3,4,5-trifluorophenyl)carbamoyl)-3,4-dihydro-2H-benzo[e] [1,2,4]thiadiazin-3-yl)piperidine-1-carboxylate] | > 50% |
| NCC1Nc2ccc(C(=O)Nc3cc(F)c(F)c(F)c3)cc2S(=O)(=O)N1 (stereo not drawn) [Example E29, 3-(aminomethyl)-N-(3,4,5-trifluorophenyl)-3,4-dihydro-2H-benzo[e][1,2,4]thiadiazine-7-carboxamide 1,1-dioxide] | > 50% |
| O=C(Nc1ccc(F)c(F)c1)c1ccc2c(c1)S(=O)(=O)NC(c1nccs1)N2 (stereo not drawn) [Example E50, N-(3,4-difluorophenyl)-3-(thiazol-2-yl)-3,4-dihydro-2H-benzo[e][1,2,4]thiadiazine-7-carboxamide 1,1-dioxide] | > 50% |
| Cc1nc(C)c(C2Nc3ccc(C(=O)Nc4ccc(F)c(F)c4)cc3S(=O)(=O)N2)o1 (stereo not drawn) [Example E38, N-(3,4-difluorophenyl)-3-(2,4-dimethyloxazol-5-yl)-3,4-dihydro-2H-benzo[e][1,2,4]thiadiazine-7-carboxamide 1,1-dioxide] | > 50% |
| O=C(Nc1ccc(F)c(F)c1)c1ccc2c(c1)S(=O)(=O)NC(c1cccnc1)N2 (stereo not drawn) [Example E47, N-(3,4-difluorophenyl)-3-(pyridin-3-yl)-3,4-dihydro-2H-benzo[e][1,2,4]thiadiazine-7-carboxamide 1,1-dioxide] | > 50% |
| O=C(Nc1cc(F)c(F)c(F)c1)c1ccc2c(c1)S(=O)(=O)NCC(CO)O2 (stereo not drawn) [Example E139, 4-(hydroxymethyl)-N-(3,4,5-trifluorophenyl)-3,4-dihydro-2H-benzo[b][1,4,5]oxathiazepine-8-carboxamide 1,1-dioxide] | < 50% |
